According to ChEMBL document CHEMBL3885881, “DrugMatrix”:

Organism: Rattus norvegicus
Test: DrugMatrix - Regimen: Daily Repeat
Assay type: toxicity, organism-based, Sprague-Dawley
Set-up: regimen Daily Repeat, gender Male, age 6-8 weeks
Details: in vivo, po, route oral GAVAGE, […]; for ABSOLUTE BASOPHIL / ABSOLUTE EOSINOPHIL / ABSOLUTE LYMPHOCYTE / ABSOLUTE MONOCYTE / ABSOLUTE SEGMENTED NEUTROPHIL / BASOPHIL / EOSINOPHIL / ERYTHROCYTE COUNT / HEMATOCRIT / HEMOGLOBIN / LEUKOCYTE COUNT / LYMPHOCYTE / MEAN CORPUSCULAR HEMOGLOBIN / MEAN CORPUSCULAR HEMOGLOBIN CONCENTRATION / MEAN CORPUSCULAR VOLUME / MONOCYTE / NEUTROPHIL / NUCLEATED RED BLOOD CELLS / PLATELET COUNT: tissue Blood; for ALANINE AMINOTRANSFERASE / ALBUMIN / ALKALINE PHOSPHATASE / ASPARTATE AMINOTRANSFERASE / BLOOD UREA NITROGEN / CARBON DIOXIDE / CHLORIDE / CHOLESTEROL / CREATINE PHOSPHOKINASE / CREATININE / GLUCOSE / LACTATE DEHYDROGENASE / LIPASE / PHOSPHORUS / POTASSIUM / SODIUM / TOTAL BILIRUBIN / TOTAL PROTEIN / URIC ACID: tissue Plasma
[1] = 500 mg/kg, 72 h, dose level Low, time 3 day
[2] = 500 mg/kg, 120 h, dose level Low, time 5 day
[3] = 1100 mg/kg, 72 h, dose level High, time 3 day
[4] = 1100 mg/kg, 120 h, dose level High, time 5 day

In the case of `CCOC(=O)c1ccc(N)cc1` [BENZOCAINE], the “ABSOLUTE BASOPHIL” value [1] is reported as 0 CELLS/uL, the “ABSOLUTE EOSINOPHIL” value [1] is reported as 229 CELLS/uL and the “ABSOLUTE LYMPHOCYTE” value [1] is reported as 17082.33 CELLS/uL. For the same compound, the “ABSOLUTE MONOCYTE” value [1] was 210.67 CELLS/uL, the “ABSOLUTE SEGMENTED NEUTROPHIL” value [1] was 1644.67 CELLS/uL and the BASOPHIL [1] was 0%. For the same compound, the EOSINOPHIL [1] was 1%, the “ERYTHROCYTE COUNT” value [1] was 5.35 x10E6/uL and the HEMATOCRIT [1] was 35.4%. For the same compound, the HEMOGLOBIN [1] was 14.2 G/DL, the “LEUKOCYTE COUNT” value [1] was 19.17 x10E3/uL and the LYMPHOCYTE [1] was 89.33%. The “MEAN CORPUSCULAR HEMOGLOBIN” value [1] was 26.5 pg, the “MEAN CORPUSCULAR HEMOGLOBIN CONCENTRATION” value [1] was 40.13 G/DL and the “MEAN CORPUSCULAR VOLUME” value [1] was 66.13 fL. The MONOCYTE [1] was 1%, the NEUTROPHIL [1] was 8.67% and the “NUCLEATED RED BLOOD CELLS” value [1] was 0 /100WBC. For the same compound, the “PLATELET COUNT” value [1] was 1441 x10E3/uL, the “ALANINE AMINOTRANSFERASE” value [1] was 64 u/L and the ALBUMIN [1] was 4.2 G/DL. The “ALKALINE PHOSPHATASE” value [1] was 444.67 u/L, the “ASPARTATE AMINOTRANSFERASE” value [1] was 108.33 u/L and the “BLOOD UREA NITROGEN” value [1] was 9.67 mg/dL. The “CARBON DIOXIDE” value [1] was 29 mmol/L, the CHLORIDE [1] was 102.33 MEQ/L and the CHOLESTEROL [1] was 59.33 mg/dL. The “CREATINE PHOSPHOKINASE” value [1] was 648.33 u/L, the CREATININE [1] was 0.35 mg/dL and the GLUCOSE [1] was 175.67 mg/dL. The “LACTATE DEHYDROGENASE” value [1] was 218.67 u/L, the LIPASE [1] was 12.33 u/L and the PHOSPHORUS [1] was 12.33 mg/dL. For the same compound, the POTASSIUM [1] was 6.58 MEQ/L, the SODIUM [1] was 144.73 MEQ/L and the “TOTAL BILIRUBIN” value [1] was 0.2 mg/dL. For the same compound, the “TOTAL PROTEIN” value [1] was 5.7 G/DL, the “URIC ACID” value [1] was 1.73 mg/dL and the “ABSOLUTE BASOPHIL” value [2] was 0 CELLS/uL. The “ABSOLUTE EOSINOPHIL” value [2] was 0 CELLS/uL, the “ABSOLUTE LYMPHOCYTE” value [2] was 16058.33 CELLS/uL and the “ABSOLUTE MONOCYTE” value [2] was 107.33 CELLS/uL. For the same compound, the “ABSOLUTE SEGMENTED NEUTROPHIL” value [2] was 2201 CELLS/uL, the BASOPHIL [2] was 0% and the EOSINOPHIL [2] was 0%. The “ERYTHROCYTE COUNT” value [2] was 4.82 x10E6/uL, the HEMATOCRIT [2] was 32.4% and the HEMOGLOBIN [2] was 13.2 G/DL. The “LEUKOCYTE COUNT” value [2] was 18.37 x10E3/uL, the LYMPHOCYTE [2] was 87% and the “MEAN CORPUSCULAR HEMOGLOBIN” value [2] was 27.47 pg. The “MEAN CORPUSCULAR HEMOGLOBIN CONCENTRATION” value [2] was 40.77 G/DL, the “MEAN CORPUSCULAR VOLUME” value [2] was 67.4 fL and the MONOCYTE [2] was 0.67%. For the same compound, the NEUTROPHIL [2] was 12.33%, the “NUCLEATED RED BLOOD CELLS” value [2] was 0.67 /100WBC and the “PLATELET COUNT” value [2] was 1368 x10E3/uL. For the same compound, the “ALANINE AMINOTRANSFERASE” value [2] was 53.67 u/L, the ALBUMIN [2] was 4.13 G/DL and the “ALKALINE PHOSPHATASE” value [2] was 386 u/L. The “ASPARTATE AMINOTRANSFERASE” value [2] was 98 u/L, the “BLOOD UREA NITROGEN” value [2] was 13 mg/dL and the “CARBON DIOXIDE” value [2] was 29 mmol/L. For the same compound, the CHLORIDE [2] was 104.33 MEQ/L, the CHOLESTEROL [2] was 48.33 mg/dL and the “CREATINE PHOSPHOKINASE” value [2] was 364.67 u/L. For the same compound, the CREATININE [2] was 0.17 mg/dL, the GLUCOSE [2] was 150 mg/dL and the “LACTATE DEHYDROGENASE” value [2] was 646.67 u/L. For the same compound, the LIPASE [2] was 11 u/L, the PHOSPHORUS [2] was 10.6 mg/dL and the POTASSIUM [2] was 6.6 MEQ/L. The SODIUM [2] was 143.27 MEQ/L, the “TOTAL BILIRUBIN” value [2] was 0.3 mg/dL and the “TOTAL PROTEIN” value [2] was 5.77 G/DL. The “URIC ACID” value [2] was 1.63 mg/dL, the “ABSOLUTE BASOPHIL” value [3] was 0 CELLS/uL and the “ABSOLUTE EOSINOPHIL” value [3] was 55.33 CELLS/uL. The “ABSOLUTE LYMPHOCYTE” value [3] was 17429 CELLS/uL, the “ABSOLUTE MONOCYTE” value [3] was 386.67 CELLS/uL and the “ABSOLUTE SEGMENTED NEUTROPHIL” value [3] was 3095.67 CELLS/uL. For the same compound, the BASOPHIL [3] was 0%, the EOSINOPHIL [3] was 0.33% and the “ERYTHROCYTE COUNT” value [3] was 4.95 x10E6/uL. The HEMATOCRIT [3] was 33.3%, the HEMOGLOBIN [3] was 13.8 G/DL and the “LEUKOCYTE COUNT” value [3] was 20.97 x10E3/uL. For the same compound, the LYMPHOCYTE [3] was 81.67%, the “MEAN CORPUSCULAR HEMOGLOBIN” value [3] was 27.93 pg and the “MEAN CORPUSCULAR HEMOGLOBIN CONCENTRATION” value [3] was 41.43 G/DL. For the same compound, the “MEAN CORPUSCULAR VOLUME” value [3] was 67.4 fL, the MONOCYTE [3] was 1.33% and the NEUTROPHIL [3] was 16.67%. The “NUCLEATED RED BLOOD CELLS” value [3] was 0.33 /100WBC, the “PLATELET COUNT” value [3] was 1424.33 x10E3/uL and the “ALANINE AMINOTRANSFERASE” value [3] was 72 u/L. For the same compound, the ALBUMIN [3] was 4.03 G/DL, the “ALKALINE PHOSPHATASE” value [3] was 546.33 u/L and the “ASPARTATE AMINOTRANSFERASE” value [3] was 93.33 u/L. For the same compound, the “BLOOD UREA NITROGEN” value [3] was 10.33 mg/dL, the “CARBON DIOXIDE” value [3] was 31 mmol/L and the CHLORIDE [3] was 104.33 MEQ/L. The CHOLESTEROL [3] was 61 mg/dL, the “CREATINE PHOSPHOKINASE” value [3] was 361.67 u/L and the CREATININE [3] was 0.14 mg/dL. The GLUCOSE [3] was 138.67 mg/dL, the “LACTATE DEHYDROGENASE” value [3] was 171 u/L and the LIPASE [3] was 11.33 u/L. For the same compound, the PHOSPHORUS [3] was 11.13 mg/dL, the POTASSIUM [3] was 6.37 MEQ/L and the SODIUM [3] was 144.8 MEQ/L. For the same compound, the “TOTAL BILIRUBIN” value [3] was 0.3 mg/dL, the “TOTAL PROTEIN” value [3] was 5.57 G/DL and the “URIC ACID” value [3] was 1.27 mg/dL. The “ABSOLUTE BASOPHIL” value [4] was 0 CELLS/uL, the “ABSOLUTE EOSINOPHIL” value [4] was 0 CELLS/uL and the “ABSOLUTE LYMPHOCYTE” value [4] was 14423.33 CELLS/uL. For the same compound, the “ABSOLUTE MONOCYTE” value [4] was 145 CELLS/uL, the “ABSOLUTE SEGMENTED NEUTROPHIL” value [4] was 2531.67 CELLS/uL and the BASOPHIL [4] was 0%. For the same compound, the EOSINOPHIL [4] was 0%, the “ERYTHROCYTE COUNT” value [4] was 4.51 x10E6/uL and the HEMATOCRIT [4] was 32.4%. The HEMOGLOBIN [4] was 13.97 G/DL, the “LEUKOCYTE COUNT” value [4] was 17.1 x10E3/uL and the LYMPHOCYTE [4] was 84.33%. The “MEAN CORPUSCULAR HEMOGLOBIN” value [4] was 31.07 pg, the “MEAN CORPUSCULAR HEMOGLOBIN CONCENTRATION” value [4] was 43.13 G/DL and the “MEAN CORPUSCULAR VOLUME” value [4] was 71.97 fL. For the same compound, the MONOCYTE [4] was 1%, the NEUTROPHIL [4] was 14.67% and the “NUCLEATED RED BLOOD CELLS” value [4] was 1.33 /100WBC. For the same compound, the “PLATELET COUNT” value [4] was 1244.67 x10E3/uL, the “ALANINE AMINOTRANSFERASE” value [4] was 56.67 u/L and the ALBUMIN [4] was 4.2 G/DL. The “ALKALINE PHOSPHATASE” value [4] was 347.67 u/L, the “ASPARTATE AMINOTRANSFERASE” value [4] was 84 u/L and the “BLOOD UREA NITROGEN” value [4] was 13.33 mg/dL. For the same compound, the “CARBON DIOXIDE” value [4] was 32.67 mmol/L, the CHLORIDE [4] was 102.33 MEQ/L and the CHOLESTEROL [4] was 58 mg/dL. The “CREATINE PHOSPHOKINASE” value [4] was 180 u/L, the CREATININE [4] was 0.13 mg/dL and the GLUCOSE [4] was 145.33 mg/dL. The “LACTATE DEHYDROGENASE” value [4] was 146.67 u/L, the LIPASE [4] was 11 u/L and the PHOSPHORUS [4] was 11.13 mg/dL. The POTASSIUM [4] was 6.79 MEQ/L, the SODIUM [4] was 143.83 MEQ/L and the “TOTAL BILIRUBIN” value [4] was 0.37 mg/dL. For the same compound, the “TOTAL PROTEIN” value [4] was 5.9 G/DL and the “URIC ACID” value [4] was 1.53 mg/dL.
